Key:
[1] = design: method as in PMID 23764525; details: cited from earlier work
[2] = system: RXFP2; details: cited from earlier work
[3] = system: RXFP3; design: method as in PMID 23764525; details: cited from earlier work
[4] = system: human RXFP1; details: cited from earlier work
[5] = system: human RXFP1; details: cited from earlier work; remark: listed apart in the source
[6] = molecular target: T1, RXFP1 (Homo sapiens, UniProt Q9HBX9); assay: ERK1/2 phosphorylation (Surefire) in HEK-RXFP1 cells; format: cell-based; design: expressed in transfected cells; host or cells: HEK293T / HEK293 cells stably expressing RXFP1 (HEK-RXFP1); details: ML290 10 μM, 10 min pretreatment
T1 sequence (Q9HBX9 1-757): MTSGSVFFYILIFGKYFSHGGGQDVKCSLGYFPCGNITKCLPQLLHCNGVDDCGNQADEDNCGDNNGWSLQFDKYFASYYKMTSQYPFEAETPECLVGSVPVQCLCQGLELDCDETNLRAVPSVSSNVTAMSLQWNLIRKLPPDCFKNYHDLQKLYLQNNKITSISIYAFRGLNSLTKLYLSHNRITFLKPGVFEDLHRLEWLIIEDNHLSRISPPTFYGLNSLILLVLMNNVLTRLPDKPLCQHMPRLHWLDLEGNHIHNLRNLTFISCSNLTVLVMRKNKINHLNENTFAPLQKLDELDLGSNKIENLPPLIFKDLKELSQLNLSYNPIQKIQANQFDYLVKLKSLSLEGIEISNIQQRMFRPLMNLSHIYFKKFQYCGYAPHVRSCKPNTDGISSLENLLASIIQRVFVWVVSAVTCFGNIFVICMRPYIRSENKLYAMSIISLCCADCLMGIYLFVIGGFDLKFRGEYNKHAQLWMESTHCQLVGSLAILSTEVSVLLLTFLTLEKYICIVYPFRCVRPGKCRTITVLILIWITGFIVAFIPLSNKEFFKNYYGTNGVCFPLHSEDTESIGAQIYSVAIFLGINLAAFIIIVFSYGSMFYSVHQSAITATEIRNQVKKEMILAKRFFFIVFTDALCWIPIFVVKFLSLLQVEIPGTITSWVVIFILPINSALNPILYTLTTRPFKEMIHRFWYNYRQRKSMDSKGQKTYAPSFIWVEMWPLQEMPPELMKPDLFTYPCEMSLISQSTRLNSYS
Procedure: p-ERK1/2, p-p38MAPK and p-JNK1/2 was measured using the Surefire ERK, p38 and JNK kits (TGR BioSciences, Australia) as described previously, [16]. Briefly, HEK-RXFP1 cells were plated into 96-well plates (5 × 10^4 cells/well) and primary cells grown in 24-well plates (1 × 10^5 cells/well) overnight to achieve a confluent monolayer. Prior to stimulation, HEK293 cells were serum-starved with DMEM containing 0.5% (v/v) FBS and primary cells in M199 medium for 4–6 hours. […] Levels of p-ERK1/2, p-p38MAPK and p-JNK1/2/3 were detected as per manufacturer’s instructions (Perkin-Elmer, Australia).

SMILES: CC(C)Oc1ccccc1C(=O)Nc1ccccc1C(=O)Nc1cccc(S(=O)(=O)C(F)(F)F)c1 [ML290, 2-Isopropoxy-N-(2-(3-(trifluoromethylsulfonyl)phenylcarbamoyl)phenyl) benzamide]
- T1/2 in heart ([1]; heart): 7.48 h
- tissue distribution ([1]; heart): concentrated in the heart
- plasma half-life ([1]; mice): 8.56 h
- toxicity ([1]; mice): without obvious toxicity
- T1/2 in plasma ([1]; plasma): 8.56 h
- action at RXFP2 [2]: little or no action
- action at RXFP3 [3]: little or no action
- agonist action at human RXFP1 [4]: activates
- competition for 125I-H2 relaxin binding [5]: does not compete
- effect of pretreatment on maximum p-ERK1/2 response to relaxin [6]: significantly increased

— article PMC5462828 (Scientific Reports, 2017)
